Test results reported in patent US4725683A, “Fluorophenoxyphenoxypropionates and derivatives thereof” (The Dow Chemical Company, priority 1985, dated 1988).

Tests used:
Test in all cases: Preemergent activity
Type in all cases: in vivo
Yellow Foxtail = conditions: Setaria, pre-emergence, read-out: Preemergence Control; for pest or weed control at 70 g/ha: 0.07 kgs/hectare; for pest or weed control at 140 g/ha: 0.14 kgs/hectare; for pest or weed control at 280 g/ha: 0.28 kgs/hectare; for pest or weed control at 560 g/ha: 0.56 kgs/hectare; for pest or weed control at 1120 g/ha: 1.12 kgs/hectare
Procedure: (§1) In a representative operation, 2-[4-(2-fluoro-4-trifluoromethylphenoxy)phenoxy]propionic acid methyl ester, to be utilized in a series of tests, is dissolved in acetone to one half of the final volume (twice the final concentration) to be used and the acetone solution in each case is admixed with an equal volume of water containing 0.1 percent by weight of Tween-20 surface active material (Tween-20 is a trademark of Atlas Chemical Company). The composition, generally in the nature of an emulsion, was employed to treat separate respective seed beds of sandy loam soil of good nutrient content wherein each seed bed contained separate groups of good viable seeds, each group being of one of a known plant species. The various beds were positioned side by side and exposed to substantially identical conditions of temperature and light. Each bed was maintained so as to prevent any interaction with the test compound in different seed beds. Each seed bed was treated with the composition as a spray employing conventional spraying equipment to deposit a predetermined amount of the compound uniformly throughout the surface of the bed. Another seed bed was treated only with the acetone-Tween-20 water mixture with no chemical added to serve as a control.

Johnson Grass = conditions: Sorghum halepense, pre-emergence, read-out: Preemergence Control; for pest or weed control at 70 g/ha: 0.07 kgs/hectare; for pest or weed control at 140 g/ha: 0.14 kgs/hectare; for pest or weed control at 280 g/ha: 0.28 kgs/hectare; for pest or weed control at 560 g/ha: 0.56 kgs/hectare; for pest or weed control at 1120 g/ha: 1.12 kgs/hectare
Procedure: as §1

Barnyard Grass = conditions: Echinochloa crus-galli, pre-emergence, read-out: Preemergence Control; for pest or weed control at 70 g/ha: 0.07 kgs/hectare; for pest or weed control at 140 g/ha: 0.14 kgs/hectare; for pest or weed control at 280 g/ha: 0.28 kgs/hectare; for pest or weed control at 560 g/ha: 0.56 kgs/hectare; for pest or weed control at 1120 g/ha: 1.12 kgs/hectare
Procedure: as §1

Wheat = conditions: Triticum aestivum, pre-emergence, read-out: Preemergence Control; for plant injury at 70 g/ha: 0.07 kgs/hectare; for plant injury at 140 g/ha: 0.14 kgs/hectare; for plant injury at 280 g/ha: 0.28 kgs/hectare; for plant injury at 560 g/ha: 0.56 kgs/hectare; for plant injury at 1120 g/ha: 1.12 kgs/hectare
Procedure: as §1

Wild Oats = conditions: Avena fatua, pre-emergence, read-out: Preemergence Control; for pest or weed control at 70 g/ha: 0.07 kgs/hectare; for pest or weed control at 140 g/ha: 0.14 kgs/hectare; for pest or weed control at 280 g/ha: 0.28 kgs/hectare; for pest or weed control at 560 g/ha: 0.56 kgs/hectare; for pest or weed control at 1120 g/ha: 1.12 kgs/hectare
Procedure: as §1

| Compound | pest or weed control at 70 g/ha (Yellow Foxtail) | pest or weed control at 140 g/ha (Yellow Foxtail) | pest or weed control at 280 g/ha (Yellow Foxtail) | pest or weed control at 560 g/ha (Yellow Foxtail) | pest or weed control at 1120 g/ha (Yellow Foxtail) | pest or weed control at 70 g/ha (Johnson Grass) | pest or weed control at 140 g/ha (Johnson Grass) | pest or weed control at 280 g/ha (Johnson Grass) | pest or weed control at 560 g/ha (Johnson Grass) | pest or weed control at 1120 g/ha (Johnson Grass) | pest or weed control at 70 g/ha (Barnyard Grass) | pest or weed control at 140 g/ha (Barnyard Grass) | pest or weed control at 1120 g/ha (Barnyard Grass) | plant injury at 70 g/ha (Wheat) | plant injury at 140 g/ha (Wheat) | plant injury at 280 g/ha (Wheat) | plant injury at 560 g/ha (Wheat) | plant injury at 1120 g/ha (Wheat) | pest or weed control at 140 g/ha (Wild Oats) | pest or weed control at 1120 g/ha (Wild Oats) | further results |
| --- | --- | --- | --- | --- | --- | --- | --- | --- | --- | --- | --- | --- | --- | --- | --- | --- | --- | --- | --- | --- | --- |
| CC(Oc1ccc(Oc2ccc(Br)cc2F)cc1)C(=O)OCCN(C)C (centres unmarked) [O(CH2)2 N(CH3)2] | 0% | 0% | 0% | 100% | 100% | 0% | 0% | 60% | 95% | 100% | 70% | 100% | 100% | 0% | 0% | 0% | 0% | 0% | 30% | 99% | pest or weed control at 280 g/ha (Barnyard Grass): 100%; pest or weed control at 560 g/ha (Barnyard Grass): 100%; pest or weed control at 70 g/ha (Wild Oats): 0%; pest or weed control at 280 g/ha (Wild Oats): 30%; pest or weed control at 560 g/ha (Wild Oats): 90% |
| CC(Oc1ccc(Oc2ccc(Br)cc2F)cc1)C(=O)N(C)c1ccccc1 (centres unmarked) |  | 0% |  |  | 0% |  | 0% |  |  | 0% |  | 0% | 0% | 0% | 0% | 0% | 0% | 0% | 0% | 0% |  |
| CC(Oc1ccc(Oc2ccc(Br)cc2F)cc1)C(=O)O (centres unmarked) [OH, 2-(4-(4-Bromo-2-fluorophenoxy)phenoxy)propionic acid] | 0% | 0% | 90% | 100% | 100% | 0% | 60% | 80% | 100% | 100% | 50% | 95% | 100% | 0% | 0% | 0% | 0% | 30% | 100% | 100% | pest or weed control at 280 g/ha (Barnyard Grass): 100%; pest or weed control at 560 g/ha (Barnyard Grass): 100%; pest or weed control at 70 g/ha (Wild Oats): 0%; pest or weed control at 280 g/ha (Wild Oats): 90%; pest or weed control at 560 g/ha (Wild Oats): 95% |
| CCOCCOC(=O)C(C)Oc1ccc(Oc2ccc(Br)cc2F)cc1 (centres unmarked) [O(CH2)2 OC2 H5] | 0% | 0% | 80% | 100% | 100% | 0% | 0% | 0% | 60% | 60% | 0% | 90% | 100% | 0% | 0% | 0% | 0% | 20% | 30% | 100% | pest or weed control at 280 g/ha (Barnyard Grass): 95%; pest or weed control at 560 g/ha (Barnyard Grass): 100%; pest or weed control at 70 g/ha (Wild Oats): 0%; pest or weed control at 280 g/ha (Wild Oats): 30%; pest or weed control at 560 g/ha (Wild Oats): 100% |
| CC(Oc1ccc(Oc2ccc(Br)cc2F)cc1)C(N)=O (centres unmarked) [NH2, 2-(4-(4-Bromo-2-fluorophenoxy)phenoxy)propionamide] | 0% | 90% | 95% | 100% | 100% | 0% | 0% | 30% | 90% | 100% | 20% | 100% | 100% | 0% | 0% | 30% | 90% | 40% | 0% | 95% | pest or weed control at 280 g/ha (Barnyard Grass): 100%; pest or weed control at 560 g/ha (Barnyard Grass): 100%; pest or weed control at 70 g/ha (Wild Oats): 0%; pest or weed control at 280 g/ha (Wild Oats): 50%; pest or weed control at 560 g/ha (Wild Oats): 50% |
